Test results from patent US20210032257A1, “(E)-1-(4-(DIMETHYLAMINO)BUT-2-ENOYL)PYRROLIDIN-3-YL 4-((3-ISOPROPYL-5-METHYLPYRAZOLO[1,5-A]PYRIMIDIN-7-YL)AMINO)PIPERIDINE-1-CARBOXYLATE FOR INHIBITING CDK7” (Eli Lilly and Company, priority 2017, published 2021).

Assays:
Assay in all cases: Biomarker study proliferation (CellTiter-Glo)
Assay type in all cases: cell-based
[1] = test system: HCC1187
Outline: (§1)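 Seeding density 5000 cells/well; overnight recovery; compound 10-pt, 1:3; 7 d, 37 °C, 5% CO2; CellTiter-Glo, 15 min RT; luminescence. Ctrl: staurosporine 5 μM final.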

[2] = test system: KPL1
Outline: as §1

[3] = test system: NCIH1299
Outline: as §1

[4] = test system: HS294T
Outline: as §1

[5] = test system: NCIH727
Outline: as §1

[6] = test system: OV90
Outline: as §1

[7] = test system: HCT116
Outline: as §1

[8] = test system: KYSE150
Outline: as §1

[9] = test system: KLE
Outline: as §1

[10] = test system: HCC1143
Outline: as §1

[11] = test system: A375
Outline: as §1

[12] = test system: LN18
Outline: as §1

[13] = test system: SKMES1
Outline: as §1

[14] = test system: KELLY
Outline: as §1

[15] = test system: HCC827
Outline: as §1

[16] = test system: NCIH446
Outline: as §1

[17] = test system: Raw264.7
Outline: as §1

[18] = test system: SH10TC
Outline: as §1

[19] = test system: T47D
Outline: as §1

[20] = Homo sapiens, 168 h, read-out: Anti-proliferation effect IC50

`Cc1cc(NC2CCN(C(=O)O[C@H]3CCN(C(=O)/C=C/CN(C)C)C3)CC2)n2ncc(C(C)C)c2n1` [Example 1, [(3S)-1-[(E)-4-(dimethylamino)but-2-enoyl]pyrrolidin-3-yl] 4-[(3-isopropyl-5-methyl-pyrazolo[1,5-a]pyrimidin-7-yl)amino]piperidine-1-carboxylate] was tested, and the “Anti-proliferation effect % Inh.” value ([1]; HCC1187, BREAST, 7 days) was 73%, the “Anti-proliferation effect Outcome” value ([1]; HCC1187, BREAST, 7 days) was “Cytotoxic (cytotoxic (IC50<1 μM and % inhibition ≥70%))” and the IC50 ([1]; Homo sapiens, HCC1187, 168 h, read-out: Anti-proliferation effect IC50) was 27 nM. For the same compound, the “Anti-proliferation effect % Inh.” value ([2]; KPL1, BREAST, 7 days) was 43%, the “Anti-proliferation effect Outcome” value ([2]; KPL1, BREAST, 7 days) was “Cytostatic (cytostatic (IC50<1 μM and % inhibition <70%))” and the IC50 ([2]; KPL-1, 168 h, read-out: Anti-proliferation effect IC50) was 668 nM. For the same compound, the IC50 ([3]; Homo sapiens, NCI-H1299, 168 h, read-out: Anti-proliferation effect IC50) was 195 nM, the “Anti-proliferation effect % Inh.” value ([3]; NCIH1299, LUNG, 7 days) was 44% and the “Anti-proliferation effect Outcome” value ([3]; NCIH1299, LUNG, 7 days) was “Cytostatic (cytostatic (IC50<1 μM and % inhibition <70%))”. For the same compound, the “Anti-proliferation effect % Inh.” value ([4]; HS294T, SKIN, 7 days) was 84%, the “Anti-proliferation effect Outcome” value ([4]; HS294T, SKIN, 7 days) was “Cytotoxic (cytotoxic (IC50<1 μM and % inhibition ≥70%))” and the IC50 ([4]; Homo sapiens, Hs 294T, 168 h, read-out: Anti-proliferation effect IC50) was 20 nM. For the same compound, the IC50 ([5]; Homo sapiens, NCI-H727, 168 h, read-out: Anti-proliferation effect IC50) was 117 nM, the “Anti-proliferation effect % Inh.” value ([5]; NCIH727, LUNG, 7 days) was 56% and the “Anti-proliferation effect Outcome” value ([5]; NCIH727, LUNG, 7 days) was “Cytostatic (cytostatic (IC50<1 μM and % inhibition <70%))”. The IC50 ([6]; Homo sapiens, OV-90, 168 h, read-out: Anti-proliferation effect IC50) was 34 nM, the “Anti-proliferation effect % Inh.” value ([6]; OV90, OVARY, 7 days) was 61% and the “Anti-proliferation effect Outcome” value ([6]; OV90, OVARY, 7 days) was “Cytostatic (cytostatic (IC50<1 μM and % inhibition <70%))”. The “Anti-proliferation effect % Inh.” value ([7]; HCT116, INTESTINE, 7 days) was 88%, the “Anti-proliferation effect Outcome” value ([7]; HCT116, INTESTINE, 7 days) was “Cytotoxic (cytotoxic (IC50<1 μM and % inhibition ≥70%))” and the IC50 ([7]; Homo sapiens, HCT-116, 168 h, read-out: Anti-proliferation effect IC50) was 41 nM. For the same compound, the IC50 ([8]; Homo sapiens, KYSE-150, 168 h, read-out: Anti-proliferation effect IC50) was 42 nM, the “Anti-proliferation effect % Inh.” value ([8]; KYSE150, OESOPHAGUS, 7 days) was 64% and the “Anti-proliferation effect Outcome” value ([8]; KYSE150, OESOPHAGUS, 7 days) was “Cytostatic (cytostatic (IC50<1 μM and % inhibition <70%))”. The “Anti-proliferation effect % Inh.” value ([9]; ENDOMETRIUM, 7 days) was 65%, the “Anti-proliferation effect Outcome” value ([9]; ENDOMETRIUM, 7 days) was “Cytostatic (cytostatic (IC50<1 μM and % inhibition <70%))” and the IC50 [9, 20] was 28 nM. For the same compound, the “Anti-proliferation effect % Inh.” value ([10]; HCC1143, BREAST, 7 days) was 37%, the “Anti-proliferation effect Outcome” value ([10]; HCC1143, BREAST, 7 days) was “Insensitive (insensitive (IC50≥1 μM))” and the IC50 ([10]; Homo sapiens, HCC1143, 168 h, read-out: Anti-proliferation effect IC50) was > 10000 nM. The “Anti-proliferation effect % Inh.” value ([11]; A375, SKIN, 7 days) was 86%, the “Anti-proliferation effect Outcome” value ([11]; A375, SKIN, 7 days) was “Cytotoxic (cytotoxic (IC50<1 μM and % inhibition ≥70%))” and the IC50 ([11]; Homo sapiens, A-375, 168 h, read-out: Anti-proliferation effect IC50) was 55 nM. The IC50 ([12]; Homo sapiens, LN-18, 168 h, read-out: Anti-proliferation effect IC50) was 15 nM, the “Anti-proliferation effect % Inh.” value ([12]; LN18, CNS, 7 days) was 91% and the “Anti-proliferation effect Outcome” value ([12]; LN18, CNS, 7 days) was “Cytotoxic (cytotoxic (IC50<1 μM and % inhibition ≥70%))”. For the same compound, the IC50 ([13]; Homo sapiens, SK-MES-1, 168 h, read-out: Anti-proliferation effect IC50) was 28 nM, the “Anti-proliferation effect % Inh.” value ([13]; SKMES1, LUNG, 7 days) was 80% and the “Anti-proliferation effect Outcome” value ([13]; SKMES1, LUNG, 7 days) was “Cytotoxic (cytotoxic (IC50<1 μM and % inhibition ≥70%))”. For the same compound, the “Anti-proliferation effect % Inh.” value ([14]; KELLY, CNS, 7 days) was 80%, the “Anti-proliferation effect Outcome” value ([14]; KELLY, CNS, 7 days) was “Cytotoxic (cytotoxic (IC50<1 μM and % inhibition ≥70%))” and the IC50 ([14]; Kelly, 168 h, read-out: Anti-proliferation effect IC50) was 58 nM. For the same compound, the “Anti-proliferation effect % Inh.” value ([15]; HCC827, LUNG, 7 days) was 69%, the “Anti-proliferation effect Outcome” value ([15]; HCC827, LUNG, 7 days) was “Cytostatic (cytostatic (IC50<1 μM and % inhibition <70%))” and the IC50 ([15]; Homo sapiens, HCC827, 168 h, read-out: Anti-proliferation effect IC50) was 55 nM. For the same compound, the IC50 ([16]; Homo sapiens, NCI-H446, 168 h, read-out: Anti-proliferation effect IC50) was 13 nM, the “Anti-proliferation effect % Inh.” value ([16]; NCIH446, LUNG, 7 days) was 95% and the “Anti-proliferation effect Outcome” value ([16]; NCIH446, LUNG, 7 days) was “Cytotoxic (cytotoxic (IC50<1 μM and % inhibition ≥70%))”. The IC50 ([17]; Mus musculus, RAW264.7, 168 h, read-out: Anti-proliferation effect IC50) was 355 nM, the “Anti-proliferation effect % Inh.” value ([17]; Raw264.7, 7 days) was 62% and the “Anti-proliferation effect Outcome” value ([17]; Raw264.7, 7 days) was “Cytostatic (cytostatic (IC50<1 μM and % inhibition <70%))”. For the same compound, the “Anti-proliferation effect % Inh.” value ([18]; SH10TC, STOMACH, 7 days) was 58%, the “Anti-proliferation effect Outcome” value ([18]; SH10TC, STOMACH, 7 days) was “Cytostatic (cytostatic (IC50<1 μM and % inhibition <70%))” and the IC50 ([18]; SH-10-TC, 168 h, read-out: Anti-proliferation effect IC50) was 147 nM. The “Anti-proliferation effect % Inh.” value ([19]; BREAST, 7 days) was 68%, the “Anti-proliferation effect Outcome” value ([19]; BREAST, 7 days) was “Cytostatic (cytostatic (IC50<1 μM and % inhibition <70%))” and the IC50 [19, 20] was 45 nM.
